Here are results for 2 compounds from patent publication US20240335503A1, “ROMIDEPSIN AS A THERAPEUTIC AGENT FOR NERVE-INJURY INDUCED NEUROPATHIC PAIN AND SPASTICITY” (The United States Government as represented by the …, priority 2021, published 2024).

The structures appear in SMILES notation. Entries after “also recorded” stand apart in the source; their conditions may differ. Like-named read-outs stand apart in the source and are kept apart here. Bounds are passed on as bounds.

Broadly, the MTD is the largest dose that counted as tolerated. High values mean a wide tolerated range, low ones a narrow tolerated range. A word on the half-life: it is the time needed for the level to fall by half in the phase considered.

In one series the test system is SCI-induced spasticity. The series can be described thus: Evoked H-reflex EMG recordings (rate-dependent depression) in SCI spasticity model. It is filed as in vivo, mouse. As for the experimental part:
(§1) As detailed elsewhere herein, the feasibility of “repurposing” a clinically approved drug to address spasticity in SCI will be evaluated. Here, testing the efficacy of romidepsin, an FDA-approved drug, to reduce PAK1 activity in the spinal cord and SCI-induced spasticity has begun. […] Initial test dosages were calculated from human trial data using FDA guidelines for converting drug dosage from human to animal.
Study Design: Four animal groups were prepared (adult m/f mix; 6-8 weeks old; n=60/group); 1) Sham+DMSO/vehicle, 2) Sham+Romidepsin, 3) SCI+DMSO/vehicle, and 4) SCI+Romidepsin. […]
H-reflex electrophysiology-EMG recordings of evoked H-reflex will be performed in the plantar muscle group (Bandaru et al., 2015; Benson et al., 2017; Boulenguez et al., 2010; Nielsen et al., 2007). […] Three trials (10 sweeps/trial) will be recorded for each paired-pulse. Rectified traces will be analyzed. […] The H/M ratio will be calculated using the peak amplitude of M-wave and H-reflex following the test pulse. H-reflex EMG studies provide specific readout only of the monosynaptic circuit, and is therefore an accurate measure of the spinal stretch reflex response without the confounds of supraspinal, interneuronal, or other motor neuron sub-type input (Nielsen et al., 2007).

Series [1] in a line: Maximum tolerated dose in SCI mouse model (weight loss, paw grip-strength, mobility). It is filed as in vivo. As to conditions: mouse, in vivo; once/day for 3 days; 10 μl per IP injection; diluted in 1% DMSO. On the procedure: as §1
(§2) Vehicle (1% DMSO) was used as a control treatment.

The test system of a further series is SCI mouse model. Described as above. It is filed as in vivo. As for the experimental part: as §1, §2
Series [2] deals with acetyl histone-H3. The series is classed as in vivo, mouse. The settings on record: vs control treated animal tissues; FIG. 17. On the procedure: as §1
To monitor in vivo drug-response using established clinical biomarkers from all animals before and after treatment with romidepsin, histone acetylation was assessed in spinal cord tissue, peripheral blood mononuclear cells (PBMCs), and monocytes from CSF (i.e., ELISA pharmacodynamics assessment) (Cotto et al., 2010); VanderMolen et al., 2011). Liquid samples were collected using routine blood or spinal CSF draws.
(§3) To monitor in vivo drug-response using established clinical biomarkers from all animals before and after intrathecal treatment with romidepsin at MTD, histone acetylation in peripheral blood mononuclear cells (PBMCs) or lymphocytes/monocytes in CSF (i.e., ELISA pharmacodynamics assessment) will be assessed (Cotto et al., 2010; VanderMolen et al., 2011). […]

The subject of the next series is p-Raf. The series can be described thus: p-Raf expression in spinal cord neurons (histological analysis). It is filed as in vivo, mouse. The settings on record: spinal cord after SCI; FIG. 16.
Source text: Outcome Measures: On days 14, 28, and 35 post-SCI, spinal cord and brain tissue were collected for histological analyses. Tissue was processed using SWITCH clearing and immunohistochemistry performed to analyze protein expression levels of inflammatory markers, i.e., GFAP/OX42 for astro/microgliosis, cfos, p38, p-Raf, or PAK1 activity (Stamboulian et al., 2010); Tan et al., 2011; Tan et al., 2008). Because mice are Thy1-GFP transgenic animals, α-motor neurons were identified using established morphological criteria, including soma size and topographical location (Bandaru et al., 2015; Tan et al., 2012a). GFP-expressing dendritic spines were visualized, and their morphology profiled in association with spasticity. All data was statistically compared across groups (Bandaru et al., 2015; Zhao et al., 2016). To determine the efficacy of romidepsin treatments on SCI-induced spasticity, anatomical and biochemical data were correlated with spasticity outcomes. […]
as §3

Series [3] deals with nerve injury-induced chronic pain. The series can be described thus: Spared nerve injury (SNI) pain model, mechanical-evoked pain. The settings on record: mouse SNI, IP once/day for 5 days at 0.25 mg/kg, FIG. 27. The series is classed as in vivo. From the text: An SNI is a transection-type peripheral nerve injury model, whereby a portion of the sciatic nerve innervating the hindlimb is ligated and cut. In this nerve injury model, the common peroneal and tibial nerves are injured, producing consistent and reproducible pain hypersensitivity in the cutaneous territory of the spared sural nerve. Additionally, the SNI leads to prolonged mechanical and thermal hyperresponsiveness in behavioral studies, which closely mimic clinically-described neuropathic pain conditions (Cichon et al., 2018). With an SNI, adult mice rapidly develop maximal neuropathic pain sensitivity within 3 days post-SNI (Benson et al., 2020; Cichon et al., 2018).
To evaluate the efficacy of romidepsin in treating nerve-induced chronic pain, the following comparator groups were prepared (weight-matched, adult male/female equally mixed C57BL/6 mice): Sham (n=5), SNI+Vehicle (n=5), and SNI+romidepsin (n=5). Romidepsin was administered as an intraperitoneal (IP) injection for five consecutive days after SNI (once/day for 5 days: 5 μl per injection at 0.25 mg/kg). Vehicle administration route was the same as romidepsin (1% diluted in DMSO; IP route), and sham animals underwent all procedures except for nerve injury.

In another series the test system is adult mice. As to conditions: mouse, in vivo.
The next series concerns the target PAK1 (Homo sapiens, UniProt Q13153). The settings on record: cited from earlier work.
For series [4] the following is noted: cited from earlier work.
Series [5] relates to acetyl histone-H3. As to conditions: injected intraperitoneally; within 24-hours post-administration; dorsal horn L4 (Guo et al., 2018); FIG. 25; cited from earlier work.
For the next series, the system named is humans. The settings on record: human, in vivo; cited from earlier work.
Series [6] deals with primary cultured spinal cord dorsal horn neurons. The series can be described thus: Dendritic spine density in primary cultured neurons with PAK1 inhibitor. The settings on record: PAK1 inhibitor treatment; FIG. 11. The series is classed as cell-based. On the procedure: To assess whether PAK1 inhibition would disrupt dendritic spines, a morphological correlate of spasticity, the effect of a non-pharmaceutical grade PAK1 inhibitor, IPA3, on primary cultured spinal cord dorsal horn neurons was measured using previous methods (Tan et al., 2011).

Sequence of PAK1 (Q13153 whole entry): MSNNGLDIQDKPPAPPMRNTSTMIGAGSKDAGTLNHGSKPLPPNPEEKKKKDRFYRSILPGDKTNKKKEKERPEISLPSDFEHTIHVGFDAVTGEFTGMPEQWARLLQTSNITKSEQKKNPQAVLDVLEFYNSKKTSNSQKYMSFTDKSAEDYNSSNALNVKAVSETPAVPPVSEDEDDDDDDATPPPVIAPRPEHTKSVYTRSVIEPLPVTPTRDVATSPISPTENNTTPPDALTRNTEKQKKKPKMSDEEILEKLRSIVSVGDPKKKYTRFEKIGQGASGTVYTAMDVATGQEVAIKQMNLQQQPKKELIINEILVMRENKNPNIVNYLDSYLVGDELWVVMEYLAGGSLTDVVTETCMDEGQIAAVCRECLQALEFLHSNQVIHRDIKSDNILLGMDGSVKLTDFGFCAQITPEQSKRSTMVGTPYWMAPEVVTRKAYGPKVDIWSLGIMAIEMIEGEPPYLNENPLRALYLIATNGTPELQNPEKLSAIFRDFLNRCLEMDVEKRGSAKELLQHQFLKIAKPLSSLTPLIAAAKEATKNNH
Procedure for adult mice: Rationale for Dosing: These initial romidepsin dosages were determined on two interrelated rationales. […] 2) Because it is expected that the utility of romidepsin for pain mitigation would likely require longer-term use than for the oncology indication, a pilot study in mice was performed with a lower dose of romidepsin for a prolonged period of time (once daily injections up to 14 days).

With `C/C=C1\NC(=O)[C@H]2CSSCC/C=C/[C@H](CC(=O)N[C@H](C(C)C)C(=O)N2)OC(=O)[C@H](C(C)C)NC1=O` [romidepsin], in the series on SCI-induced spasticity (SCI animals vs vehicle control, preliminary EMG studies, FIG. 13), the “RDD of H-reflex (spasticity)” value is listed as “partially restored RDD; also recorded: partial reduction in spasticity”. Also, the “RDD of H-reflex (H/M ratio)” value in the series on SCI-induced spasticity (SCI mice, IP injection at 0.25 mg/kg vs control vehicle, FIG. 15, 0.25 mg/kg) is recorded as “significant restoration of rate-dependent depression (RDD)”. In series [1], the maximal tolerated dose (MTD) at 3 days came out at 1.25 mg/kg. Also, in the series with SCI mouse model (SCI mouse model, once/day IP injection over 3 days, 0.1 ml), the “maximum tolerated dose (MTD)” value is on record as 1.25 mg/kg/injection. In the series with SCI mouse model (mouse, in vivo), the body weight result was “does not affect”. The paw-grip strength entry in the series on SCI mouse model (mouse, in vivo) is recorded as “does not affect”. In the series with acetyl histone-H3 [2], the “H3 density in spinal cord tissues” value was “significant increase in H3 density”. Further, the “expression of p-Raf on Thy-YFP expressing cells (neurons)” value in the series with p-Raf was “significantly decreases”. In addition, the mechanical-evoked pain result in series [3] is on record as “significant decrease in mechanical-evoked pain; also recorded: significantly decreases mechanical-evoked pain”. Also, the “adverse effects (ambulation, body mass loss, outward signs of toxicity)” value in the series with adult mice was “no observable adverse effects”. Further, the food intake entry with adult mice was “appeared the same”. Moreover, at PAK1 (Hirokawa et al., 2005, Maruta, 2011), the “concentrations that significantly reduce PAK1 kinase activity” value was 0.1 to 1 nM. Moreover, at PAK1 (at 0.1-1 nM), the PAK1 protein level entry is on record as “without changing”. In addition, in [4] (administered systemically in non-human primates or rodents/rats, drug and active metabolites), the “blood brain barrier (BBB) penetration” value is on record as “can passively penetrate through the blood brain barrier (BBB) in relatively low concentrations”. In addition, the half-life is less than 10 h in series [4] (depending on the organism (Berg et al., 2004)); less than 10 h in series [4] (published PK/PD studies (Berg et al., 2004)); less than 10 h in series [4] (published human PK/PD studies (Berg et al., 2004)). The “histone acetylation in neurons” value with acetyl histone-H3 [5] is given as “upregulation of histone acetylation in neurons; also recorded: upregulation in acetyl histone-H3 in neurons”. Besides, the “occurrence of adverse reactions (grade 3 or 4) related to weight loss and fatigue” value in the series on humans is recorded as 2-8%.
As to `Oc1ccc2ccccc2c1SSc1c(O)ccc2ccccc12` [IPA3], the dendritic spine density entry in [6] is listed as “decreases”.
